The values below come from publication PMC10036753, “Orally disintegrating tablets containing famotidine nanoparticles provide high intestinal absorbability via the energy-dependent endocytosis pathway” (Frontiers in Bioengineering and Biotechnology, 2023).

The nature of data set [1]: Particle size distribution of FAM dispersions and redispersed FAM tablets (NanoSight LM10). Type of data set: physicochemical. Here is the method:
The characterization of the FAM tablets and their redispersion were evaluated in accordance with our previous study ([Deguchi et al., 2021]; [Nagai et al., 2022]). Briefly, the shape and dimensions of the tablets were analyzed using ImageJ image analysis software 1.53. Hardness was measured using a Force Tester MCT-2150 (A&D Co., Ltd., Toshimaku, Japan), and friability was measured using an Oriental Reaction Motor (ORIENTAL MOTOR Co., Ltd., Tokyo, Japan). The disintegration of FAM tablets was evaluated using NT-2H (TOYAMA SANGO Co. Ltd., Osaka, Japan). The friability and disintegration of the FAM tablets were measured according to the Japanese Pharmacopoeia (18th edition). The FAM tablets were dispersed in 10 mL of purified water and the redispersion, solubility, viscosity, and intestinal penetration were measured. The particle distributions of the FAM dispersions and redispersed FAM tablets were measured by […] NanoSight LM10 (Quantum Design Japan, Tokyo, Japan), and the measurement time, wavelength, and viscosity were set to 60 s, 405 nm (blue) and 1.27 mPa s, respectively. Scanning electron microscopy (SEM) images were obtained using NeoScope™ JCM-7000 (JEOL Ltd., Tokyo, Japan). […] The viscosity of the redispersed FAM tablet was measured at 20°C–40°C using an SV-1A viscometer (A&D Company, Limited, Tokyo, Japan).

The conditions of data set [2]: ref Khalifa and Abdul Rasool, 2017; cited from earlier work.
The conditions of data set [3]: without bead-milling treatment.
Procedure: First, 3 mL of each FAM dispersion were incubated in 5 mL test tubes in the dark at 20°C for 28 days. Images of the FAM dispersions were captured with a digital camera. The dispersions (50 μL) were withdrawn from 5 mm under the surface at the indicated time intervals (0, 7, 14, 21, and 28 days), and the FAM concentration was measured using the HPLC methods described above. In this study, the difference in FAM concentrations before and after the start of the experiment was estimated, and the changes in FAM levels on the surface were defined as the dispersibility of the FAM dispersions.
For data set [4] the following is noted: oral, 40 mg daily; ref Lyon, 1986; Ramchandran et al., 2011; cited from earlier work.
Data set [5] in a line: Pharmacokinetic study of FAM tablet in the rat. Type of data set: in vivo, Wistar rats. The note with it: Wistar, plasma, intravenous, single injection of FAM solution in DMSO (0.04 mg/kg) into the femoral vein.
Procedure: FAM concentration was determined by HPLC using an LC-20AT HPLC system (Shimadzu Corp., Kyoto, Japan). A Luna® 5 µm C18 column (100 Å, 150 × 4.6 mm, GL Science Co., Inc., Tokyo, Japan) was used for the measurement, and the mobile phase [one-heptanesulfonic acid sodium salt/acetonitrile/methanol (25/6/1)] was followed at 0.25 mL/min. The sample was mixed with an internal standard (methyl p-hydroxybenzoate) in methanol and 10 µL of the mixture was injected into the HPLC system using an SIL-20AC HPLC auto injector. In this study, the FAM levels were measured at 254 nm (wavelength for detection).
Blood (200 μL) was collected from the right jugular vein at the indicated time intervals (0, 10, 20, 30, and 360 min). The collected blood was centrifuged at 800 × g for 15 min at 4°C, and the supernatant was used for measurement.
The next data set deals with H2 receptors. The note with it: ref Hassan et al., 1990; Patel and Patel, 2013; cited from earlier work.
For data set [6] the following is noted: ref Jha et al., 2014; cited from earlier work.

As for `NC(N)=Nc1nc(CSCCC(N)=NS(N)(=O)=O)cs1` [FAM, Famotidine], the “Mean particle size of FAM” value in data set [1] (dispersion with bead-milling treatment) turned out to be 108 ± 5.7 nm. Further, the “Mean particle size of FAM” value in data set [1] (dispersion without bead-milling treatment) is recorded as 23.7 ± 2.1 µm. Moreover, the BCS classification result in data set [2] is listed as “class III”. In addition, the “Time after preparation at which FAM was precipitated” value in data set [3] worked out at 24 h. For the same compound, the Tolerability result in data set [4] is given as “well tolerated”. Further, the Vd in data set [5] (read-out: Distribution volume (V d)) was 0.064 L. For the same compound, the k el in data set [5] (read-out: Elimination rate constant (k e) (converted)) was 2.17e-05 s⁻¹. In addition, in the data set on H2 receptors, the “Inhibitory effect relative to cimetidine” value is listed as 20 fold and the “Inhibitory effect relative to ranitidine” value is 7.5 fold. Further, in data set [6], the “Intestinal penetration after oral administration” value is under 50%.
